# Structures can show the parent of a compound that is named as a salt.
# Molecular target: T1, Cloned Human Serotonin Receptor, Subtype 7 (h5HT7) (Homo sapiens, UniProt P34969)
# T1 construct: purchased PerkinElmer 6120512; host or cells: CHO cells (membranes coated on Basic FlashPlate, Cat. SMP200)
# Assay: Radioligand binding assay, [125I]LSD, cloned human 5-HT7 receptor expressed in CHO cells
# Details: radioligand [125I]LSD 0.82 nM
# Protocol: Radioligand binding assays were performed using the Cloned Human Serotonin Receptor, Subtype 7 (h5HT7), expressed in CHO cells, coated on Flashplate (Basic FlashPlate Cat.: SMP200) from PerkinElmer (Cat.: 6120512). The protocol assay was essentially the recommended protocol in the Technical Data Sheet by PerkinEmer Life and Analytical Sciences. The Mass membrane protein/well was typically 12 μg and the Receptor/well was about 9-10 fmoles. The Flashplate were let equilibrate at room temperature for one hour before the addition of the components of the assay mixture. The binding buffer was: 50 mM Tris-HCl, pH 7.4, containing 10 mM MgCl2, 0.5 mM EDTA and 0.5% BSA. The radioligand was [^125I]LSD at a final concentration of 0.82 nM. Nonspecific binding was determined with 50 μM of Clozapine. The assay volume was 25 μl. TopSeal-A were applied onto Flashplate microplates and they were incubated at room temperature for 240 minutes in darkness. The radioactivity were quantified by liquid scintillation spectrophotometry (Wallac 1450 Microbeta Trilux) with a count delay of 4 minutes prior to counting and a counting time of 30 seconds per well. Competition binding data were analyzed by using the LIGAND program (Munson and Rodbard, LIGAND: A versatile, computerized approach for characterization of ligand-binding systems. Anal. Biochem. 107: 220-239, 1980) and assays were performed in triplicate determinations for each point.
# T1 sequence (P34969 whole entry): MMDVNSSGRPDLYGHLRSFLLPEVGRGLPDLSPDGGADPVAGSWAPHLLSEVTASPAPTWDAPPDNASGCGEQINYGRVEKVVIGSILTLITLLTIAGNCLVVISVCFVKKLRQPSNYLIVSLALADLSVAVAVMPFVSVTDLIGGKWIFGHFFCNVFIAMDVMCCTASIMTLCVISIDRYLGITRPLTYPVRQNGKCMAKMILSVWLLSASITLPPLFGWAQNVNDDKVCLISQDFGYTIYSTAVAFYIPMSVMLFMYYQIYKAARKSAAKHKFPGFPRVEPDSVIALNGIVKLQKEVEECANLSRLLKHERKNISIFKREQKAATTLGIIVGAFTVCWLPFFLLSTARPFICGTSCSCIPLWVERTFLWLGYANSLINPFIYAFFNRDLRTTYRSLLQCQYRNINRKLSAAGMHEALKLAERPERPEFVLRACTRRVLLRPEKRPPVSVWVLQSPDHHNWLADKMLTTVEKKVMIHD
SMILES,Ki,IC50
"CCCN(C(C)C)[C@H]1CCc2c(cccc2-c2c(C)nn(C)c2C)C1 [AC, (2S)-Isopropyl-propyl-[5-(1,3,5-trimethyl-1H-pyrazol-4-yl)-1,2,3,4-tetrahydro-naphthalen-2-yl]-amine]",0.227 ± 0.0113 µM,–
"COc1ccccc1-c1cccc2c1CCC(N(C)C)C2 (centres unmarked) [AF, [5-(2-Methoxy-phenyl)-1,2,3,4-tetrahydro-naphthalen-2-yl]-dimethyl-amine]",0.0258 ± 0.0046 µM,–
"COc1cccc(Cl)c1-c1cccc2c1CCC(N(C)C)C2 (centres unmarked) [AH, [5-(2-Chloro-6-methoxy-phenyl)-1,2,3,4-tetrahydro-naphthalen-2-yl]-dimethyl-amine]",0.0116 ± 0.003 µM,–
"COc1ncccc1-c1cccc2c1CCC(N(C)C)C2 (centres unmarked) [AI, [5-(2-Methoxy-pyridin-3-yl)-1,2,3,4-tetrahydro-naphthalen-2-yl]-dimethyl-amine]",0.0616 ± 0.0058 µM,–
"Cc1nn(C)c(C)c1-c1cccc2c1CC[C@H](N(C)C(C)C)C2 [Example AB, (2S)-Isopropyl-methyl-[5-(1,3,5-trimethyl-1H-pyrazol-4-yl)-1,2,3,4-tetrahydro-naphthalen-2-yl]-amine]",0.644 ± 0.0635 µM,–
"Cc1nn(C)c(C)c1-c1cccc2c1CC[C@@H](N(C)C)C2 [Example J, (2R)-Dimethyl-[5-(1,3,5-trimethyl-1H-pyrazol-4-yl)-1,2,3,4-tetrahydro-naphthalen-2-yl]-amine dihydrochloride]",–,0.178 µM
"Cc1n[nH]c(C)c1-c1cccc2c1CC[C@H](N(C)C)C2 [Example L, (2S)-[5-(3,5-Dimethyl-1H-pyrazol-4-yl)-1,2,3,4-tetrahydro-naphthalen-2-yl]-dimethyl-amine dihydrochloride]",–,0.0184 ± 0.0025 µM
"CCN(CC)C1CCc2c(cccc2-c2c(C)nn(C)c2C)C1 (centres unmarked) [Example S, Diethyl-[5-(1,3,5-trimethyl-1H-pyrazol-4-yl)-1,2,3,4-tetrahydro-naphthalen-2-yl]-amine]",0.13 µM,–
"Cc1nn(C)c(C)c1-c1cccc2c1CCC(N1CCCC1)C2 (centres unmarked) [O, 1,3,5-Trimethyl-4-(6-pyrrolidin-1-yl-5,6,7,8-tetrahydro-naphthalen-1-yl)-1H-pyrazole]",0.0963 ± 0.002 µM,–
"CCCN(C)C1CCc2c(cccc2-c2c(C)nn(C)c2C)C1 (centres unmarked) [R, Methyl-propyl-[5-(1,3,5-trimethyl-1H-pyrazol-4-yl)-1,2,3,4-tetrahydro-naphthalen-2-yl]-amine]",0.0091 ± 0.0015 µM,–
"CCN(C)C1CCc2c(cccc2-c2c(C)nn(C)c2C)C1 (centres unmarked) [T, Ethyl-methyl-[5-(1,3,5-trimethyl-1H-pyrazol-4-yl)-1,2,3,4-tetrahydro-naphthalen-2-yl]-amine]",0.0103 ± 0.0004 µM,–
